Data published in PMC5589637, “New perspectives of cobalt tris(bipyridine) system: anti-cancer effect and its collateral sensitivity towards multidrug-resistant (MDR) cancers” (Oncotarget, 2017).

How the values were obtained:
[1] = system: HCT116 p53^-/- colon cancer cells; assay: MTT cytotoxicity, HCT116 p53-/-; type: cell-based, human; conditions: for IC50: HCT116 p53-/-, MTT, 72 h; for Resistant Factor, HCT116 p53-/- vs p53+/+: IC50 p53-/- over IC50 p53+/+
Source text: (§1) All cells were obtained from the American Type Culture Collection (Rockville, MD, USA) unless otherwise specified. Immortalized wild-type and Atg7-deficient mouse embryonic fibroblasts (MEFs) were kindly provided by Professor Masaaki Komatsu (Juntendo University, School of Medicine, Japan). Taxol-resistant types of MCF-7, HCT-8, A549 cancers cells and cisplatin-resistant SGC7901 cancer cells were purchased from KeyGEN BioTECH, China. Cisplatin-sensitive or –resistant A2780, OV2008 and C13 cancer cells were kindly provided by Prof. Benjamin Tsang (Department of Obstetrics and Gynecology and Department of Cellular and Molecular Medicine, University of Ottawa, Canada). HCT116 p53^+/+ and p53^−/− isogenic human colon cancer cells were kindly provided by Professor Bert Vogelstein (Ludwig Center at Johns Hopkins, Howard Hughes Medical Institute, USA). All media were supplemented with 10% fetal bovine serum and antibiotics penicillin (50 U/ml) and streptomycin (50 μg/ml; Invitrogen, Paisley, Scotland, UK). All cell cultures were incubated at 37°C in a 5% humidified CO2 incubator.
(§2) All tested compounds were dissolved in DMSO at a final concentration of 50 mmol/L and stored at −20°C before use. Cytotoxicity was assessed by using the 3-(4,5-dimethylthiazol-2-yl)-2, 5-diphenyltetrazolium bromide (MTT) (5.0 mg/ml) assay as previously described. Briefly, 4×10^3 cells per well were seeded in 96-well plates before drug treatments. After overnight culture, the cells were then exposed to different concentrations of selected compounds ([…]) for 72 hours. Cells without drug treatment were used as control. Subsequently, MTT (10 μL) solution was added to each well and incubated at 37°C for 4 hours followed by the addition of 100 μL solubilization buffer (10%SDS in 0.01 mol/L HCl) and overnight incubation. A570 nm was then determined in each well on the next day. The percentage of cell viability was calculated using the following formula: Cell viability (%) = Atreated/Acontrol × 100. Data were obtained from three independent experiments.

[2] = system: A2780 cisplatin-sensitive cancer cells; assay: MTT cytotoxicity, cisplatin-sensitive A2780; type: cell-based; conditions: 72 h
Source text: as §1, §2

[3] = system: A549 (EGFR wild-type lung cancer) cells; assay: MTT cytotoxicity assay, A549; type: cell-based; conditions: 72 h
Description: as §2

[4] = system: HCT116 p53^+/+ colon cancer cells; assay: MTT cytotoxicity, HCT116 p53+/+; type: cell-based, human; conditions: 72 h
Source text: as §1, §2

[5] = system: HCT-8 taxol-sensitive cancer cells; assay: MTT cytotoxicity, taxol-sensitive HCT-8; type: cell-based; conditions: 72 h
Source text: as §1, §2

[6] = system: SGC-7901 cisplatin-sensitive cancer cells; assay: MTT cytotoxicity, cisplatin-sensitive SGC-7901; type: cell-based; conditions: 72 h
Source text: as §1, §2

[7] = system: SGC-7901 cisplatin-resistant cancer cells; assay: MTT cytotoxicity, cisplatin-resistant SGC-7901; type: cell-based; conditions: for IC50: SGC-7901 cisplatin-resistant, MTT, 72 h; for Resistant Factor, SGC-7901: cisplatin-resistant over cisplatin-sensitive IC50, SGC-7901
Source text: as §1, §2

[8] = system: H1975 (EGFR mutant lung cancer) cells; assay: MTT cytotoxicity assay, H1975; type: cell-based; conditions: 72 h
Description: as §2

[9] = system: normal human LO2 hepatocytes; assay: MTT cytotoxicity assay, LO2; type: cell-based; conditions: 72 h
Description: as §2

[10] = system: C13 (cisplatin-resistant) cells; assay: MTT cytotoxicity, C13 (cisplatin-resistant); type: cell-based; conditions: for IC50: C13 (cisplatin-resistant), MTT, 72 h, read-out: IC50 value, cisplatin-resistant cancer, C13; for Resistant Factor, OV2008/C13 pair: C13 (resistant) IC50 over OV2008 (sensitive) IC50
Source text: as §1, §2

[11] = system: OV2008 (cisplatin-sensitive) cells; assay: MTT cytotoxicity, OV2008 (cisplatin-sensitive); type: cell-based; conditions: 72 h, read-out: IC50 value, cisplatin-sensitive cancer, OV2008
Source text: as §1, §2

[12] = system: LLC-1 (mouse lung cancer) cells; assay: MTT cytotoxicity assay, LLC-1; type: cell-based; conditions: LLC-1, MTT, 72 h
Description: as §2

[13] = system: A2780 cisplatin-resistant cancer cells; assay: MTT cytotoxicity, cisplatin-resistant A2780; type: cell-based; conditions: for IC50: A2780 cisplatin-resistant, MTT, 72 h; for Resistant Factor, A2780: cisplatin-resistant over cisplatin-sensitive IC50, A2780
Source text: as §1, §2

[14] = system: Hep3B (liver cancer) cells; assay: MTT cytotoxicity assay, Hep 3B; type: cell-based; conditions: 72 h
Description: as §2

[15] = system: A549 taxol-sensitive cancer cells; assay: MTT cytotoxicity, taxol-sensitive A549; type: cell-based; conditions: 72 h
Source text: as §1, §2

[16] = system: MCF-7 taxol-resistant cancer cells; assay: MTT cytotoxicity, taxol-resistant MCF-7; type: cell-based; conditions: for Resistant Factor, MCF-7: IC50 of taxol-resistant cells over IC50 of taxol-sensitive cells; for IC50: MCF-7 taxol-resistant, MTT, 72 h
Source text: as §1, §2

[17] = system: MCF-7 taxol-sensitive cancer cells; assay: MTT cytotoxicity, taxol-sensitive MCF-7; type: cell-based; conditions: 72 h
Source text: as §1, §2

[18] = system: HCT-8 taxol-resistant cancer cells; assay: MTT cytotoxicity, taxol-resistant HCT-8; type: cell-based; conditions: for IC50: HCT-8 taxol-resistant, MTT, 72 h; for Resistant Factor, HCT-8: IC50 of taxol-resistant cells over IC50 of taxol-sensitive cells
Source text: as §1, §2

[19] = system: H1299 (lung cancer) cells; assay: MTT cytotoxicity assay, H1299; type: cell-based, human; conditions: 72 h
Description: as §2

[20] = system: HepG2 (liver cancer) cells; assay: MTT cytotoxicity assay, HepG2; type: cell-based; conditions: 72 h
Description: as §2

[21] = system: MCF-7 (breast cancer) cells; assay: MTT cytotoxicity assay, MCF-7; type: cell-based; conditions: MCF-7, MTT, 72 h
Description: as §2

[22] = system: A549 taxol-resistant cancer cells; assay: MTT cytotoxicity, taxol-resistant A549; type: cell-based; conditions: for IC50: A549 taxol-resistant, MTT, 72 h; for Resistant Factor, A549: IC50 of taxol-resistant cells over IC50 of taxol-sensitive cells
Source text: as §1, §2

[23] = system: HeLa (cervical cancer) cells; assay: MTT cytotoxicity assay, HeLa; type: cell-based; conditions: 72 h
Description: as §2

[24] = system: panel of cancer cells; assay: MTT cytotoxicity assay, summary over the panel of cancer cells; type: cell-based; conditions: range over the cancer cell lines of Table 1, MTT, 72 h; read-out: mean IC50 values ranged (over the cancer cell lines)
Description: as §2

Row | Compound | IC50 [1] [µM] | Resistant Factor, HCT116 p53-/- vs p53+/+ [1] | IC50 [2] [µM] | IC50 [3] [µM] | IC50 [4] [µM] | IC50 [5] [µM] | IC50 [6] [µM] | IC50 [7] [µM] | Resistant Factor, SGC-7901 [7] | IC50 [8] [µM] | IC50 [9] [µM] | IC50 [10] [µM] | Resistant Factor, OV2008/C13 pair [10] | IC50 [11] [µM] | IC50 [12] [µM] | IC50 [13] [µM] | Resistant Factor, A2780 [13] | IC50 [14] [µM] | IC50 [15] [µM] | Resistant Factor, MCF-7 [16] | also measured
1 | Cc1ccnc(-c2cc(C)ccn2)c1.Cc1ccnc(-c2cc(C)ccn2)c1.Cc1ccnc(-c2cc(C)ccn2)c1.F[P-](F)(F)(F)(F)F.F[P-](F)(F)(F)(F)F.[Co+2] [complex 1, [Co^II(4,4’-Me2-bpy)3](PF6)2] | 8.89 | 0.52 | 11.9 | 9.45 | 17.1 | 3.13 | 11.7 | 17.6 | 1.50 | 15.4 | 13.5 | 15.6 | 2.21 | 7.06 | 2.79 | 11.2 | 0.94 | 4.06 | 9.59 | 0.54 | IC50 [16]: 2.51 µM; IC50 [17]: 4.62 µM; IC50 [18]: 1.16 µM; Resistant Factor, HCT-8 [18]: 0.37; IC50 [19]: 3.43 µM; IC50 [20]: 7.39 µM; IC50 [21]: 15.4 µM; IC50 [22]: 2.37 µM; Resistant Factor, A549 [22]: 0.25; IC50 [23]: 10.1 µM
2 | COc1ccnc(-c2cc(OC)ccn2)c1.COc1ccnc(-c2cc(OC)ccn2)c1.COc1ccnc(-c2cc(OC)ccn2)c1.F[P-](F)(F)(F)(F)F.F[P-](F)(F)(F)(F)F.F[P-](F)(F)(F)(F)F.[Co+3] [complex 5, [Co^III(4,4’-(OMe)2-bpy)3](PF6)3] | 41.3 | 0.53 | 24 | 18.6 | 77.8 | 4.3 | 21.6 | 20.7 | 0.96 | 9.31 | 20.6 | 20.3 | 1.45 | 14 | 8.71 | 27 | 1.13 | 5.33 | 15 | 0.66 | IC50 [16]: 6.28 µM; IC50 [17]: 9.45 µM; IC50 [18]: 1.04 µM; Resistant Factor, HCT-8 [18]: 0.24; IC50 [19]: 8.71 µM; IC50 [20]: 15.4 µM; IC50 [21]: 10.8 µM; IC50 [22]: 2.85 µM; Resistant Factor, A549 [22]: 0.19; IC50 [23]: 12.8 µM
3 | CCCCCCCCCc1ccnc(-c2cc(CCCCCCCCC)ccn2)c1.CCCCCCCCCc1ccnc(-c2cc(CCCCCCCCC)ccn2)c1.CCCCCCCCCc1ccnc(-c2cc(CCCCCCCCC)ccn2)c1.F[P-](F)(F)(F)(F)F.F[P-](F)(F)(F)(F)F.F[P-](F)(F)(F)(F)F.[Co+3] [complex 6, [Co^III(4,4’-(C9H19)2-bpy)3](PF6)3] | 34.1 | 0.93 | 30.2 | 82.8 | 36.5 | 56.4 | 36.3 | 35.9 | 0.99 | 24.2 | 40.2 | 92.6 | 1.87 | 49.4 | 10.4 | 29.1 | 0.96 | 54.1 | 54.3 | 0.39 | IC50 [24]: 10.4 to 82.8 µM; IC50 [16]: 11.1 µM; IC50 [17]: 28.5 µM; IC50 [18]: 41.1 µM; Resistant Factor, HCT-8 [18]: 0.73; IC50 [19]: 26.7 µM; IC50 [20]: 26 µM; IC50 [21]: 37.4 µM; IC50 [22]: 2.6 µM; Resistant Factor, A549 [22]: 0.05; IC50 [23]: 21.3 µM
